Where a name gives a salt, the structure may show the parent alone. Read-outs that look alike come from different tables or passages of the source.

The test system of series [1] is Target C. Nature of the series: HiBiT protein abundance assay, Target C (K562 HiBiT knock-in). The format is cell-based, human. The conditions noted are these: HiBiT knock-in cells, 24 hours. In outline:
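K562 HiBiT knock-in cells (10000/well) in IMDM + 1% FBS were treated for 24 h at 37° C. with a 10-point 3-fold dilution series (top 10 μM final), with DMSO ≤0.25%. Unmodified K562 served as baseline. HiBiT lytic luminescence was normalized to controls, and IC50 was interpolated at 50% from a four-parameter fit.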

The subject of series [2] is K562 cells. Nature of the series: Cell viability, Cell Titer Glo 2.0 assay, K562. The conditions noted are these: 72 hours. Background: In ATP-based viability assays light output follows the ATP content of the culture.
The test system of series [3] is HiBiT-tagged HTT protein. Nature of the series: HiBiT protein abundance assay, HTT (K562 HiBiT knock-in). In kind it is cell-based, human. The conditions noted are these: HiBiT knock-in cells, 24 hours. In a few lines:
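Endogenously HiBiT-tagged K562 knock-in lines treated 24 h at 37 °C with 10-point 3-fold dilutions (top 10 μM final, DMSO ≤0.25%) in IMDM+1% FBS. Lytic Nano-Glo luminescence normalized to DMSO and unmodified K562 controls; four-parameter fit gives 50%-abundance concentration (IC50).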
In general terms: With HiBiT, luminescence reflects the tagged protein that the partner subunit can reach.

The test system of series [4] is HTT mRNA. Nature of the series: Splicing RT-qPCR assay, HTT canonical (CJ) and alternative (AJ) junction mRNA. In kind it is cell-based, human. The note with it: Homo sapiens; for IC50: canonical junction mRNA; for AC50: alternative junction mRNA, read-out: HTT AJ (AC50, increase in AJ mRNA). In outline:
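Cmpd 24 h, 37 °C/5% CO2; 11-pt 3x serial dilution from 10 uM final; DMSO max 0.25%. Cells: A673 (DMEM/10% FBS, pre-adhered 24 h) or K562 (IMDM/10% FBS). Lyse, DNase I, then 1-step RT-qPCR for CJ and AJ; housekeeping-normalized.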

The mark [5] stands for this setting: 24 h, RT-qPCR, A673 or K562 cells, 24 hours treatment, read-out: HTT CJ (IC50, decrease in CJ mRNA).
The mark [6] stands for this setting: qPCR panel, read-out: HTT CJ (decrease in CJ mRNA levels, IC50).
Where [7] appears, read: RT-qPCR, A673 or K562 cells, 24 hours treatment.

Turning to `CN1CCC[C@@H]2CN(c3cnc4nc(-c5cc6cn(C)nc6c(F)c5O)cc(Cl)c4c3)C[C@@H]21` [Compound 303], the IC50 in series [1] fell in the range of 1000 to 10000 nM; in series [3], 100 to 1000 nM; in series [4] (setting [5]), 100 to 1000 nM; in series [4] (setting [6]), 100 to 1000 nM. In addition, the “Effect on Cell Viability, K562” value in series [2] was “B (100-1000 nM)”. Moreover, in series [4] (setting [7]), the half-maximal activity concentration (AC50) was > 10000 nM.

For `CN1CCC[C@H]2CN(c3cnc4nc(-c5cc6cn(C)nc6c(F)c5O)cc(Cl)c4c3)C[C@H]21` [Compound 304], the IC50 was > 10000 nM in series [1], 1000 to 10000 nM in series [3], 1000 to 10000 nM in series [4] (setting [5]) and 1000 to 10000 nM in series [4] (setting [6]). In addition, in series [2], the “Effect on Cell Viability, K562” value is reported as “B (100-1000 nM)”. In addition, in series [4] (setting [7]), the AC50 lay within 1000 to 10000 nM.

`C[C@@H]1CN(c2cnc3nc(-c4cc5cn(C)nc5c(F)c4O)cc(C4CC4)c3c2)C[C@H](C)N1` [Compound 305, 5-{4-cyclopropyl-6-[(3R,5S)-3,5-dimethylpiperazin-1-yl]-1,8-naphthyridin-2-yl}-7-fluoro-2-methylindazol-6-ol]: the half-maximal inhibitory concentration (IC50) in series [1], in series [3], in series [4] (setting [5]) and in series [4] (setting [6]) was 1000 to 10000 nM throughout. Moreover, the “Effect on Cell Viability, K562” value in series [2] was “C (1000-9999 nM)”. Further, the AC50 in series [4] (setting [7]) lay in the range of 1000 to 10000 nM.

For the molecule `CCN[C@@H]1CCN(c2cnc3nc(-c4cc5cn(C)nc5cc4O)ccc3c2)C1` [Compound 310, 5-{6-[(3R)-3-(ethylamino)468pyrrolidine-1-yl]-1,8-naphthyridin-2-yl}-2-methylindazol-6-ol hydrochloride], the IC50 in series [1] was 100 to 1000 nM; in series [3], 100 to 1000 nM; in series [4] (setting [5]) it was < 100 nM; in series [4] (setting [6]), < 100 nM. The “Effect on Cell Viability, K562” value in series [2] was “B (100-1000 nM)”. The AC50 in series [4] (setting [7]) fell in the range of 100 to 1000 nM.

Consider `CCN[C@H]1CCN(c2cnc3nc(-c4cc5cn(C)nc5cc4O)ccc3c2)C1` [Compound 311, 5-{6-[(3S)-3-(ethylamino)pyrrolidin-1-yl]-1,8-naphthyridin-2-yl}-2-methylindazol-6-ol hydrochloride], for which the IC50 in series [1], in series [3], in series [4] (setting [5]) and in series [4] (setting [6]) was 100 to 1000 nM throughout. The “Effect on Cell Viability, K562” value in series [2] is reported as “B (100-1000 nM)”. Further, the AC50 in series [4] (setting [7]) fell in the range of 1000 to 10000 nM.

Take `Cn1cc2cc(-c3ccc4cc(N5CC[C@@H](NCC6CC6)C5)cnc4n3)c(O)cc2n1` [Compound 313]: the IC50 in series [1], in series [3], in series [4] (setting [5]) and in series [4] (setting [6]) was 100 to 1000 nM in each case. Also, the “Effect on Cell Viability, K562” value in series [2] is given as “B (100-1000 nM)”. Also, the AC50 in series [4] (setting [7]) was 100 to 1000 nM.

With `Cn1cc2cc(-c3ccc4cc(N5CC[C@H](NCC6CC6)C5)cnc4n3)c(O)cc2n1` [Compound 314], the IC50 in series [1], in series [3], in series [4] (setting [5]) and in series [4] (setting [6]) was 100 to 1000 nM in each case. In addition, in series [2], the “Effect on Cell Viability, K562” value is recorded as “B (100-1000 nM)”. The concentration at half-maximal activity (AC50) in series [4] (setting [7]) was in the range of 100 to 1000 nM.

Turning to `CN(C)C1CCN(c2cnc3nc(-c4cc5cn(C)nc5cc4O)ccc3c2)CC1` [Compound 316], the IC50 in series [1], in series [3], in series [4] (setting [5]) and in series [4] (setting [6]) was 1000 to 10000 nM in each case. In addition, the “Effect on Cell Viability, K562” value in series [2] is “B (100-1000 nM)”. The AC50 in series [4] (setting [7]) lay within 1000 to 10000 nM.

With `CCN[C@@H]1CCN(c2cnc3nc(-c4cc5cn(C)nc5cc4O)cc(Cl)c3c2)C1` [Compound 317], the half-maximal inhibitory concentration (IC50) in series [1], in series [3], in series [4] (setting [5]) and in series [4] (setting [6]) was < 100 nM each time. Moreover, the “Effect on Cell Viability, K562” value in series [2] is “A (<100 nM)”. In series [4] (setting [7]), the AC50 is < 100 nM.

`CCN[C@H]1CCN(c2cnc3nc(-c4cc5cn(C)nc5cc4O)cc(Cl)c3c2)C1` [Compound 318]: the IC50 in series [1], in series [3], in series [4] (setting [5]) and in series [4] (setting [6]) was 100 to 1000 nM in each case. Moreover, in series [2], the “Effect on Cell Viability, K562” value is reported as “A (<100 nM)”. In addition, the AC50 in series [4] (setting [7]) lay in the range of 1000 to 10000 nM.

One may read the IC50 as the concentration that gives 50% inhibition. In general, AC50 refers to the concentration at which the activity in the assay is half-maximal.

Source of the values: US20250326748A1, “COMPOUNDS AND METHODS FOR MODULATING SPLICING” (REMIX THERAPEUTICS INC., priority 2022, published 2025).
